From patent publication EP0070331A2, “Cephalosporin derivatives, their preparation, compositions containing them, and their use in the treatment of diseases” (F. HOFFMANN-LA ROCHE & CO. Aktiengesellschaft, priority 1981, dated 1983) come the findings set out here.

Each structure is given as a SMILES string.

One series concerns Escherichia coli. Briefly: Curative dose (CD50) in infected mice, Escherichia coli. It counts as in vivo. The following applies: Maus, dose at which 50% of mice survive.
The test system of a further series is Serratia marcescens. Kind of series: Curative dose (CD50) in infected mice, Serratia marcescens. Type of series: in vivo. The following applies: Maus, dose at which 50% of mice survive. The source says:
(§1) Die orale antimikrobielle Wirksamkeit der erfindungsgemässen Produkte kann anhand von in vivo-Versuchen an der Maus nachgewiesen werden.

The test system of another series is Neisseria meningitidis. Briefly: Curative dose (CD50) in infected mice, Neisseria meningitidis. The following applies: po, Maus, dose at which 50% of mice survive. It counts as in vivo.
Source text: as §1

The next series concerns Streptococcus pyogenes. Briefly: Curative dose (CD50) in infected mice, Streptococcus pyogenes. It counts as in vivo. The note with it: Maus, dose at which 50% of mice survive.
Series [1] is described as follows: Blood levels after oral administration in the rat. Type of series: in vivo. The following applies: Ratte, orale Dosis 20 mg/kg, read-out: Antibiotikumkonzentration im Blut.
Source text: ..Die nach oraler Gabe erzielten Blutspiegelwerte ergeben sich gemäss folgendem Vergleich an der Ratte.
A short description of the next series: in vivo. The following applies: mouse, po.

What is called ED50 is the dose that gives a 50% effect, or the effect in half of the subjects. `CC1=C(C(=O)O)N2C(=O)[C@@H](NC(=O)[C@H](N)c3ccccc3)[C@H]2SC1` [Cephalexin]: the ED50 in the series with Escherichia coli (po) was 3.2 mg/kg; in the series on Escherichia coli (sc) it was 2.1 mg/kg; with Serratia marcescens (po) it was above 50 mg/kg; in the series with Serratia marcescens (sc), above 50 mg/kg; with Neisseria meningitidis it was 1.2 mg/kg; in the series on Streptococcus pyogenes (po), 1.8 mg/kg. Moreover, the 50% effect level in the series on Streptococcus pyogenes (sc) (ED50) was put at a dose of 1.2 mg/kg.

In general, LD50 refers to the dose expected to kill half of the subjects tested. Read a high LD50 as lower toxicity. Turning to `CO/N=C(\C(=O)N[C@@H]1C(=O)N2C(C(=O)OCOC(=O)C(C)(C)C)=C(CSc3nc(C(=O)OCOC(=O)C(C)(C)C)nn3C)CS[C@H]12)c1csc(N)n1` [Produkt A, Methylen (6R,7R)-7-[2-(2-Amino-4-thiazolyl)-2-[ (Z)-methoxyimino]-acetamido]-3-[[[2-methyl-5-[[(pivaloyloxy)methoxy]carbonyl]-2H-1,2,4-triazol-3-yl]thio]methyl]-8-oxo-5-thia-1-azabicyclo[4.2.0]oct-2-en-2-carboxylat-pivalat], the ED50 amounted to 0.68 mg/kg in the series on Serratia marcescens (po), 0.05 mg/kg with Serratia marcescens (sc), 0.14 mg/kg in the series with Neisseria meningitidis and 0.95 mg/kg with Streptococcus pyogenes (po). Further, in series [1] (after 15 min), the concentration at 0.25 h came out at 6000 ng/mL. The concentration at 0.5 h in series [1] (after 30 min) stood at 12000 ng/mL. In addition, in series [1] (after 45 min), the concentration at 0.75 h turned out to be 12000 ng/mL. The concentration at 1 h in series [1] (after 60 min) came to 10000 ng/mL. Also, in series [1] (after 90 min), the concentration at 1.5 h is 8000 ng/mL. For the same molecule, in series [1] (after 150 min), the concentration at 2.5 h was 5000 ng/mL. The molecule further had an LD50 at 24 h in “in vivo” above 4000 mg/kg.
